Results reported in BindingDB's records for doi:10.1021/jm050205o (Abbott Laboratories, 2005).

Biological target: T1, Glucocorticoid receptor (Homo sapiens, UniProt P04150)
T1 sequence (P04150 whole entry): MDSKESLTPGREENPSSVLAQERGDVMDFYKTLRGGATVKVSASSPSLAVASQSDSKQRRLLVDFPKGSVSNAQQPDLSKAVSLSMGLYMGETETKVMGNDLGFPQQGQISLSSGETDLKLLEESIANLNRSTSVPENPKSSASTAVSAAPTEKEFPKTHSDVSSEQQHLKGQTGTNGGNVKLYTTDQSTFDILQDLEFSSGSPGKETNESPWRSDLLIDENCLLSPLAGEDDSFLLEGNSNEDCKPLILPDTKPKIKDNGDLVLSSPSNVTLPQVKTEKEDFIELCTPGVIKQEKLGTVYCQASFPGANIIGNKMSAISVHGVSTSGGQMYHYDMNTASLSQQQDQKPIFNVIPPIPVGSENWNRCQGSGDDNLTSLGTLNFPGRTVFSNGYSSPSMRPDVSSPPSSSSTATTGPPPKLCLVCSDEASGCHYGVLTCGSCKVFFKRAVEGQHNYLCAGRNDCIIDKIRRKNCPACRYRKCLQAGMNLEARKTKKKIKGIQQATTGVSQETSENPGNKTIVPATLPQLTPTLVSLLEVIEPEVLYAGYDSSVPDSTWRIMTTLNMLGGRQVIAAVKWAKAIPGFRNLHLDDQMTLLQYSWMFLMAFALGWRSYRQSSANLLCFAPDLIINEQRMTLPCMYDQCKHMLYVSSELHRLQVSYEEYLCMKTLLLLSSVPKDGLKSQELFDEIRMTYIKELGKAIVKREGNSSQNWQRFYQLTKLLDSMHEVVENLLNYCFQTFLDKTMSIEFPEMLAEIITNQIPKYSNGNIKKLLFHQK
Experiment: GR Binding Assay and GRAF Assay
Details: pH 8; 4 °C

Row | IC50 [nM] | Structure (SMILES)
1 | 330 | Cc1c(NS(C)(=O)=O)cccc1N(Cc1ccc(Oc2ccc(Br)c(OCC(=O)O)c2)cc1)Cc1ccc(F)cc1F [2-{2-bromo-5-[4-({[(2,4-difluorophenyl)methyl](3-methanesulfonamido-2-methylphenyl)amino}methyl)phenoxy]phenoxy}acetic acid]
2 | 500 | Cc1c(NS(C)(=O)=O)cccc1N(Cc1ccc(Oc2ccc(Cl)c(OCC(=O)O)c2)cc1)Cc1ccc(F)cc1F [2-{2-chloro-5-[4-({[(2,4-difluorophenyl)methyl](3-methanesulfonamido-2-methylphenyl)amino}methyl)phenoxy]phenoxy}acetic acid]
3 | 440 | Cc1c(NS(C)(=O)=O)cccc1N(Cc1ccc(Oc2ccc(F)c(OCC(=O)O)c2)cc1)Cc1ccc(F)cc1F [2-{5-[4-({[(2,4-difluorophenyl)methyl](3-methanesulfonamido-2-methylphenyl)amino}methyl)phenoxy]-2-fluorophenoxy}acetic acid]

Row | Structure (SMILES) | IC50 [nM]
4 | CC#C[C@]1(O)CC[C@H]2[C@@H]3CCC4=CC(=O)CC[C@]4(Cc4ccc(C)cc4)C3=CC[C@@]21C [(2R,10S,11S,14S,15S)-14-hydroxy-15-methyl-2-[(4-methylphenyl)methyl]-14-(prop-1-yn-1-yl)tetracyclo[8.7.0.0^{2,7}.0^{11,15}]heptadeca-1(17),6-dien-5-one] | 43
